# In patent publication US20130244876A1, “Synergistic compositions comprising ethephon and saflufenacil or cyclanilide and saflufenacil” (priority 2012, published 2013):
# Assays:
# cotton Variety Oxford = test: Greenhouse trial for desiccation in cotton; format: in vivo; settings: foliar spray 100 L/ha, seven days after application
# Protocol: (§1) The trial was established under greenhouse conditions. The objective was to evaluate the dessication activity of saflufenacil solo and in mixture with cyclanilide and ethephon.
# (§2) The plants (soybean variety Maxi, cotton Variety Oxford) were sown (Dec. 3, 2012) in pots with 8.5 cm of diameter using standard soil from Limburgerhof, Palatinate, Germany, emerging after 3 days, maintained during the entire growth period at temperatures of about 20 to 24° C., relative humidity of about 65 to 70%, watering in the afternoon or in the morning. Each treatment was composed by 4 replications (one plant per pot).
# (§3) Foliar treatments were applied 51 days after sowing (Jan. 23, 2013) in a spray cabin with one Flat fan nozzle, using 100 L/ha as application volume. The spray solutions were prepared according to the given concentration of Tables 1 and 2 and contained in addition to the formulations used a surfactant (DASH HC, BASF S.A., Brazil; EC formulation based on methyl esters) at 0,5% (v/v).
# (§4) Saflufenacil (70% (w/w), WG formulation; Sharpen® BASF Corporation, USA)
# (§5) Ethephon (480 g/L, SL formulation)
# (§6) Cyclanilide, (300 g/kg, WP formulation)
# (§7) Assessments were made at three days after applicaton in soybean and seven days after application in cotton by evaluating percentage of symptoms of damage to the crop, mainly chlorosis and necrosis.
# soybean variety Maxi = test: Greenhouse trial for desiccation in soybean; format: in vivo; settings: foliar spray 100 L/ha, three days after application
# Protocol: as §1, §2, §3, §4, §5, §6, §7
# [1] = 1.5 g of a.i. per 100 L, percentage of symptoms of damage
# [2] = 20 g of a.i. per 100 L, percentage of symptoms of damage
# [3] = 1.4 g of a.i. per 100 L, percentage of symptoms of damage (chlorosis and necrosis)
structure (smiles),measurement,setting,value
O=C(O)C1(C(=O)Nc2ccc(Cl)cc2Cl)CC1 [Cyclanilide],Observed activity (%),cotton Variety Oxford; [1],0%
same,Observed activity (%),soybean variety Maxi; [1],0%
O=P(O)(O)CCCl [Ethephon],Observed activity (%),cotton Variety Oxford; [2],0%
same,Observed activity (%),soybean variety Maxi; [2],0%
CC(C)N(C)S(=O)(=O)NC(=O)c1cc(-n2c(=O)cc(C(F)(F)F)n(C)c2=O)c(F)cc1Cl [Saflufenacil],Observed activity (%),cotton Variety Oxford; [3],18.8%
same,Observed activity (%),soybean variety Maxi; [3],15%
